# Test results from ChEMBL document CHEMBL1126522, “Indolocarbazoles. 1. Total synthesis and protein kinase inhibiting characteristics of compounds related to K-252c” (Bioorg Med Chem Lett, 1993).
# Target: not listed separately
# Test: Displacement of ATP from myosin light chain kinase
row,Ki [nM],Compound
1,0.7,O=C1NC(=O)c2c1c1c3ccccc3n3c1c1c2c2ccccc2n1[C@@H]1O[C@H]3C[C@@H]1CO

# Target: cAMP-dependent protein kinase (PKA) (Homo sapiens, UniProt P22694+P17612+P22612)
# Test: Inhibition of cAMP-dependent protein kinase (PKA)
# Format: protein assay
row,IC50 [nM],Compound
1,18.5,O=C1NC(=O)c2c1c1c3ccccc3n3c1c1c2c2ccccc2n1[C@@H]1O[C@H]3C[C@@H]1CO

# Target: Receptor tyrosine-protein kinase erbB-2 (Homo sapiens, UniProt P04626)
# Sequence (P04626 whole entry): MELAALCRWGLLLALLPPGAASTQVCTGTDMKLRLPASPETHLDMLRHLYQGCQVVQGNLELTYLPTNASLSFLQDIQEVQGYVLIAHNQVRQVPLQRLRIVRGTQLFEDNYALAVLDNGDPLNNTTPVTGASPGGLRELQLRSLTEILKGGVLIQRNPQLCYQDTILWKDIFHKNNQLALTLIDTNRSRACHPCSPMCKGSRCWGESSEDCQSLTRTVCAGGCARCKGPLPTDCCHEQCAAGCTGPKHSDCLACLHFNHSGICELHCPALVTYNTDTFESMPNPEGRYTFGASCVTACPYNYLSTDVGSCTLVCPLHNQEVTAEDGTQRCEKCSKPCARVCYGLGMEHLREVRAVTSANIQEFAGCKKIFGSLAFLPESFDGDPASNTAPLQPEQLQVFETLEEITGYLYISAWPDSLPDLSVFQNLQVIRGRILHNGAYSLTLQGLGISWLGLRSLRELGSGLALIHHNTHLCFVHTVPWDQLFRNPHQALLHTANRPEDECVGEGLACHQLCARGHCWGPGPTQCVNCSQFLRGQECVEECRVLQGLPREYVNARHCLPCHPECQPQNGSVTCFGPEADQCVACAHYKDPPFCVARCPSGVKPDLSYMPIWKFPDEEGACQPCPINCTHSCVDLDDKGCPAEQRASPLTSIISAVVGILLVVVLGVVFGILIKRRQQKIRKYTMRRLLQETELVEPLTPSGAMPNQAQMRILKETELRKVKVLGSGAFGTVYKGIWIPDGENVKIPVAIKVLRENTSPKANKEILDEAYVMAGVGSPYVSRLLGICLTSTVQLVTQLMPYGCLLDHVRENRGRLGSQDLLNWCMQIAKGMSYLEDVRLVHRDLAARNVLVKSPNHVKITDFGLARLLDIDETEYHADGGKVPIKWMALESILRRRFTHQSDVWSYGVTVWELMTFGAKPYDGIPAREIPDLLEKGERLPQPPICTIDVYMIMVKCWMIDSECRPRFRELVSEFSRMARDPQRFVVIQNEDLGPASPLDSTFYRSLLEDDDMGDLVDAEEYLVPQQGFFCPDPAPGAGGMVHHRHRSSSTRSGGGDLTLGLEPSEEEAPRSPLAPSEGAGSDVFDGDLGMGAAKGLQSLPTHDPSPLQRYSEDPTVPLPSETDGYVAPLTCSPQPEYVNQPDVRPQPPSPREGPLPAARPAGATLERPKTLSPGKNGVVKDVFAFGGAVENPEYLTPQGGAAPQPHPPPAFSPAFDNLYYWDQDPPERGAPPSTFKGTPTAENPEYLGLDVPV
# Test: Inhibition of neu (erb-B2) HER2 kinase
row,IC50 [nM],Compound
1,250,O=C1NC(=O)c2c1c1c3ccccc3n3c1c1c2c2ccccc2n1[C@@H]1O[C@H]3C[C@@H]1CO

# Target: Protein kinase C (PKC) (Rattus norvegicus) (UniProt P05696+P68403+P09216+P63319+P09215+Q64617+Q9WTQ0+P09217)
# Test: Inhibition of partially purified rat brain protein kinase C
row,Inhibition [nM],Compound
1,2.4,O=C1NC(=O)c2c1c1c3ccccc3n3c1c1c2c2ccccc2n1[C@@H]1O[C@H]3C[C@H]1CO
2,1.7,O=C1NC(=O)c2c1c1c3ccccc3n3c1c1c2c2ccccc2n1[C@@H]1O[C@H]3C[C@@H]1CO
3,0.5,CNC(=O)[C@@H]1C[C@@H]2O[C@H]1n1c3ccccc3c3c4c(c5c6ccccc6n2c5c31)C(=O)NC4=O
4,5,C=C1C[C@@H]2O[C@H]1n1c3ccccc3c3c4c(c5c6ccccc6n2c5c31)C(=O)NC4=O
5,4,CN(C)C[C@@H]1C[C@@H]2O[C@H]1n1c3ccccc3c3c4c(c5c6ccccc6n2c5c31)C(=O)NC4=O
6,58,O=C1NC(=S)c2c1c1c3ccccc3n3c1c1c2c2ccccc2n1[C@H]1CC[C@@H]3O1
7,> 5000,CN1C(=O)c2c(c3c4ccccc4n4c3c3c2c2ccccc2n3[C@@H]2CC[C@H]4O2)C1=O
8,> 5000,NN1C(=O)c2c(c3c4ccccc4n4c3c3c2c2ccccc2n3[C@@H]2CC[C@H]4O2)C1=O

# Second part, the compound before the results:
row,Compound,Inhibition [nM]
1,O=C1NC(=O)c2c1c1c3ccccc3n3c1c1c2c2ccccc2n1[C@@H]1O[C@H]3C[C@@]1(O)C(=O)O,6
2,O=C1NC(=O)c2c1c1c3ccccc3n3c1c1c2c2ccccc2n1[C@H]1CC[C@@H]3O1,19
3,O=C1NCc2c1c1c3ccccc3n3c1c1c2c2ccccc2n1[C@H]1CC[C@@H]3O1,18
4,NC1=NC(=O)c2c1c1c3ccccc3n3c1c1c2c2ccccc2n1[C@@H]1CC[C@H]3O1,13
5,O=C1NC(O)c2c1c1c3ccccc3n3c1c1c2c2ccccc2n1[C@H]1CC[C@@H]3O1 (stereo partly drawn),50
6,S=C1NC(=S)c2c1c1c3ccccc3n3c1c1c2c2ccccc2n1[C@H]1CC[C@@H]3O1,42
7,O=C1NC(=O)c2c1c1c3ccccc3n3c1c1c2c2ccccc2n1[C@@H]1O[C@H]3C[C@H]1C(=O)O,20
